Patent US20230082430A1 (C4 Therapeutics, Inc., priority 2019, published 2023)

test system: NCIH929.1 cells; experiment: Cell viability assay for Table 2 (CellTiter-Glo 2.0, ATP quantification, 96 hr); format: cell-based; details: 96 h
Source text: Cell Viability Assay for Table 2
CellTiter-Glo® 2.0 Assay was purchased from Promega (Madison, Wis., USA). NCIH929.1 cell line was purchased from ATCC (Manassas, Va., USA). Cell culture flasks and 384-well microplates were acquired from VWR (Radnor, Pa., USA).

`O=C1CCC(N2C(=O)c3cccc4c(Cc5cn(C6CCN(CC7(C(F)(F)F)CC7)CC6)nc5Cl)ccc2c34)C(=O)N1` (stereo not drawn) [Compound 201, 3-[6-[[3-chloro-1-[1-[[1-(trifluoromethyl)cyclopropyl]methyl]-4-piperidyl]pyrazol-4-yl]methyl]-2-oxo-benzo[cd]indol-1-yl]piperidine-2,6-dione] and `N#Cc1ccc(N2CCN(Cc3ccc(Cc4ccc5c6c(cccc46)C(=O)N5C4CCC(=O)NC4=O)cc3F)CC2)c(F)c1` (stereo not drawn) [Compound 214, 4-[4-[[4-[[1-(2,6-dioxo-3-piperidyl)-2-oxo-benzo[cd]indol-6-yl]methyl]-2-fluoro-phenyl]methyl]piperazin-1-yl]-3-fluoro-benzonitrile] cannot be ordered by IC50: < 1 nM for the first, < 1 nM for the second.

same assay, conditions: 96 h, NCIH929.1 cell viability, 96 hr, top concentration 1 μM, 14 points half log titration; read-out: IC50

`CC1(CN2CCC(C#N)(n3cc(Cc4ccc5c6c(cccc46)C(=O)N5C4CCC(=O)NC4=O)cn3)CC2)CCC1` (stereo not drawn) [Compound 193, 4-[4-[[1-(2,6-dioxo-3-piperidyl)-2-oxo-benzo[cd]indol-6-yl]methyl]pyrazol-1-yl]-1-[(1-methylcyclobutyl)methyl]piperidine-4-carbonitrile] and `N#CC1(CN2CCC(n3cc(Cc4ccc5c6c(cccc46)C(=O)N5C4CCC(=O)NC4=O)cn3)CC2)CC1` (stereo not drawn) [Compound 199, 1-[[4-[4-[[1-(2,6-dioxo-3-piperidyl)-2-oxo-benzo[cd]indol-6-yl]methyl]pyrazol-1-yl]-1-piperidyl]methyl]cyclopropanecarbonitrile] cannot be ordered by IC50: < 1 nM for the first, < 1 nM for the second.

`NCC1(n2cc(Cc3ccc4c5c(cccc35)C(=O)N4C3CCC(=O)NC3=O)cn2)CCN(C(=O)C2(C(F)(F)F)CC2)CC1` (stereo not drawn) [Compound 194, 3-[6-[[1-[4-(aminomethyl)-1-[1-(trifluoromethyl)cyclopropanecarbonyl]-4-piperidyl]pyrazol-4-yl]methyl]-2-oxo-benzo[cd]indol-1-yl]piperidine-2,6-dione] and `O=C1CCC(N2C(=O)c3cccc4c(Cc5cnn(C6(CO)CCN(C(=O)C7(C(F)(F)F)CC7)CC6)c5)ccc2c34)C(=O)N1` (stereo not drawn) [Compound 195, 3-[6-[[1-[4-(hydroxymethyl)-1-[1-(trifluoromethyl)cyclopropanecarbonyl]-4-piperidyl]pyrazol-4-yl]methyl]-2-oxo-benzo[cd]indol-1-yl]piperidine-2,6-dione] cannot be ordered by IC50: < 100 nM for the first, < 1 nM for the second.

`N#Cc1ccc(N2CCN(C(=O)c3ccc(Cc4ccc5c6c(cccc46)C(=O)N5C4CCC(=O)NC4=O)cc3)CC2)c(F)c1` (stereo not drawn) [Compound 196, 4-[4-[4-[[1-(2,6-dioxo-3-piperidyl)-2-oxo-benzo[cd]indol-6-yl]methyl]benzoyl]piperazin-1-yl]-3-fluoro-benzonitrile] and `N#Cc1ccc(N2CCN(Cc3ccnn3Cc3ccc4c5c(cccc35)C(=O)N4C3CCC(=O)NC3=O)CC2)c(F)c1` (stereo not drawn) [Compound 209, 4-(4-((1-((1-(2,6-dioxopiperidin-3-yl)-2-oxo-1,2-dihydrobenzo[cd]indol-6-yl)methyl)-1-H-pyrazol-5-yl)methyl)piperazin-1-yl)-3-fluorobenzonitrile] cannot be ordered by IC50: < 1 nM for the first, < 100 nM for the second.

`O=C1CCC(N2C(=O)c3cccc4c(Cc5ccc(CN6CCOCC6=O)cc5)ccc2c34)C(=O)N1` (stereo not drawn) [Compound 197, 3-[2-oxo-6-[[4-[(3-oxomorpholin-4-yl)methyl]phenyl]methyl]benzo[cd]indol-1-yl]piperidine-2,6-dione] and `O=C1CCC(N2C(=O)c3cccc4c(Cc5ccc(CN6CCC7(CCCO7)CC6)cc5)ccc2c34)C(=O)N1` (stereo not drawn) [Compound 215, 3-(6-(4-((1-oxa-8-azaspiro[4.5]decan-8-yl)methyl)benzyl)-2-oxobenzo[cd]indol-1(2H)-yl)piperidine-2,6-dione] cannot be ordered by IC50: < 1 nM for the first, < 1 nM for the second.

`CC1(n2cc(Cc3ccc4c5c(cccc35)C(=O)N4C3CCC(=O)NC3=O)cn2)CCCCC1` (stereo not drawn) [Compound 198, 3-[6-[[1-(1-methylcyclohexyl)pyrazol-4-yl]methyl]-2-oxo-benzo[cd]indol-1-yl]piperidine-2,6-dione] and `O=C1CCC(N2C(=O)c3cccc4c(Cc5cnn(C6CCN(C(=O)C7(CO)CCC7)CC6)c5)ccc2c34)C(=O)N1` (stereo not drawn) [Compound 205, 3-[6-[[1-[1-[1-(hydroxymethyl)cyclobutanecarbonyl]-4-piperidyl]pyrazol-4-yl]methyl]-2-oxo-benzo[cd]indol-1-yl]piperidine-2,6-dione] cannot be ordered by IC50: < 1 nM for the first, < 1 nM for the second.

`CC1(CN2CCC(n3cc(Cc4ccc5c6c(cccc46)C(=O)N5C4CCC(=O)NC4=O)c(Cl)n3)CC2)CCC1` (stereo not drawn) [Compound 200, 3-[6-[[3-chloro-1-[1-[(1-methylcyclobutyl)methyl]-4-piperidyl]pyrazol-4-yl]methyl]-2-oxo-benzo[cd]indol-1-yl]piperidine-2,6-dione] and `CC1(CN2CCC(n3nc(Cl)cc3Cc3ccc4c5c(cccc35)C(=O)N4C3CCC(=O)NC3=O)CC2)CCC1` (stereo not drawn) [Compound 206, 3-[6-[[5-chloro-2-[1-[(1-methylcyclobutyl)methyl]-4-piperidyl]pyrazol-3-yl]methyl]-2-oxo-benzo[cd]indol-1-yl]piperidine-2,6-dione] cannot be ordered by IC50: < 1 nM for the first, < 1 nM for the second.

`O=C1CCC(N2C(=O)c3cccc4c(Cc5ccc(CN6CCN(S(=O)(=O)c7ccc(F)cc7)CC6)cc5)ccc2c34)C(=O)N1` (stereo not drawn) [Compound 202, 3-[6-[[4-[[4-(4-fluorophenyl)sulfonylpiperazin-1-yl]methyl]phenyl]methyl]-2-oxo-benzoindol-1-yl]piperidine-2,6-dione] and `O=C1CCC(N2C(=O)c3cccc4c(Cc5ccc(CN6CCN(c7ccccc7)CC6)cc5)ccc2c34)C(=O)N1` (stereo not drawn) [Compound 210, 3-(2-oxo-6-(4-((4-phenylpiperazin-1-yl)methyl)benzyl)benzo[cd]indol-1(2H)-yl)piperidine-2,6-dione] cannot be ordered by IC50: < 1 nM for the first, < 1 nM for the second.

`O=C1CCC(N2C(=O)c3cccc4c(Cc5ccc(CC6CCN(c7ccc(F)cc7)CC6)cc5)ccc2c34)C(=O)N1` (stereo not drawn) [Compound 203, 3-[6-[[4-[[1-(4-fluorophenyl)-4-piperidyl]methyl]phenyl]methyl]-2-oxo-benzo[cd]indol-1-yl]piperidine-2,6-dione] and `N#Cc1ccc(N2CCN(Cc3ccn(Cc4ccc5c6c(cccc46)C(=O)N5C4CCC(=O)NC4=O)n3)CC2)c(F)c1` (stereo not drawn) [Compound 208, 4-(4-((1-((1-(2,6-dioxopiperidin-3-yl)-2-oxo-1,2-dihydrobenzo[cd]indol-6-yl)methyl)-1-H-pyrazol-3-yl)methyl)piperazin-1-yl)-3-fluorobenzonitrile] cannot be ordered by IC50: < 1 nM for the first, < 1 nM for the second.

`CC1(n2cc(Cc3ccc4c5c(cccc35)C(=O)N4C3CCC(=O)NC3=O)nn2)CCN(C(=O)C2(C(F)(F)F)CC2)CC1` (stereo not drawn) [Compound 211, 3-(6-((1-(4-methyl-1-(1-(trifluoromethyl)cyclopropane-1-carbonyl)piperidin-4-yl)-1H-1,2,3-triazol-4-yl)methyl)-2-oxobenzo[cd]indol-1(2H)-yl)piperidine-2,6-dione] and `CC(C)(C)OC1CCC(n2cc(Cc3ccc4c5c(cccc35)C(=O)N4C3CCC(=O)NC3=O)cn2)CC1` (stereo not drawn) [Compound 212, 3-[6-[[1-(4-tert-butoxycyclohexyl)pyrazol-4-yl]methyl]-2-oxo-benzo[cd]indol-1-yl]piperidine-2,6-dione] cannot be ordered by IC50: < 1 nM for the first, < 1 nM for the second.

same assay, conditions: NCIH929.1 cell viability, 96 hr, top concentration 1 μM, 14 points half log titration; read-out: IC50

For `CC(C)(C)OC1CCC(n2cc(Cc3ccc4c5c(cccc35)C(=O)N4C3CCC(=O)NC3=O)cn2)CC1` (stereo not drawn) [Compound 213, 3-[6-[[1-(4-tert-butoxycyclohexyl)pyrazol-4-yl]methyl]-2-oxo-benzo[cd]indol-1-yl]piperidine-2,6-dione], the IC50 was < 1 nM.
